Experimental data reported in patent US9695155B2, “Herbicidal substituted pyrimidinyloxy benzene compounds” (E. I. DU PONT DE NEMOURS AND COMPANY, priority 2013, dated 2017).

Experiments:
[1] = system: large (Lg) crabgrass; assay: Test A preemergence; format: in vivo, Digitaria sanguinalis; details: for Plant response rating, Crabgrass, Large / Crabgrass, Large plant response rating: 0 to 100 scale where 0 is no effect and 100 is complete control; for Crabgrass, Large plant response rating: 500 g ai/ha
Method in brief: (§1)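 Compounds in non-phytotoxic solvent with surfactant applied as soil spray preemergence, or postemergence to plants 2-10 cm at one- to two-leaf stage, in loam/sand. After approximately 10 days in greenhouse, injury rated visually versus untreated controls, 0 (no effect) to 100 (complete control).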

[2] = system: giant foxtail; assay: Test A preemergence; format: in vivo, Setaria faberii; details: for Plant response rating, Foxtail, Giant / Foxtail, Giant plant response rating: 0 to 100 scale where 0 is no effect and 100 is complete control; for Foxtail, Giant plant response rating: 500 g ai/ha
Method in brief: as §1

[3] = system: pigweed; assay: Test A preemergence; format: in vivo, Amaranthus retroflexus; details: for Pigweed plant response rating (0 to 100 scale): 125 g ai/ha; for Pigweed plant response rating: 500 g ai/ha, 0 to 100 scale where 0 is no effect and 100 is complete control
Method in brief: as §1

[4] = system: velvetleaf; assay: Test A preemergence; format: in vivo, Abutilon theophrasti; details: for Velvetleaf plant response rating (0 to 100 scale): 125 g ai/ha; for Velvetleaf plant response rating: 500 g ai/ha, 0 to 100 scale where 0 is no effect and 100 is complete control
Method in brief: as §1

[5] = system: large (Lg) crabgrass; assay: Test A postemergence; format: in vivo, Digitaria sanguinalis
Method in brief: as §1

[6] = system: giant foxtail; assay: Test A postemergence; format: in vivo, Setaria faberii
Method in brief: as §1

[7] = system: pigweed; assay: Test A postemergence; format: in vivo, Amaranthus retroflexus
Method in brief: as §1

[8] = system: velvetleaf; assay: Test A postemergence; format: in vivo, Abutilon theophrasti
Method in brief: as §1

[9] = system: wheat, winter; assay: Test C postemergence; format: in vivo, Triticum aestivum
Text: (§2) Seeds of plant species selected from blackgrass (Alopecurus myosuroides), Italian ryegrass (Lolium multiflorum), wheat, winter (winter wheat, Triticum aestivum), galium (catchweed bedstraw, Galium aparine), corn (Zea mays), large (Lg) crabgrass (Digitaria sanguinalis), giant foxtail (Setaria faberii), johnsongrass (Sorghum halepense), lambsquarters (Chenopodium album), morningglory (Ipomoea coccinea), yellow nutsedge (Cyperus esculentus), pigweed (Amaranthus retroflexus), ragweed (common ragweed, Ambrosia elatior), soybean (Glycine max), barnyardgrass (Echinochloa crus-galli), oilseed rape (Brassica napus), waterhemp (common waterhemp, Amaranthus rudis), kochia (Kochia scoparia), wild oat (Avena fatua), surinam grass (Brachiaria decumbens), foxtail, green (green foxtail, Setaria viridis), goosegrass (Eleusine indica), bromegrass, downy (downy bromegrass, Bromus tectorum), nightshade (eastern black nightshade, Solanum ptycanthum), cocklebur (common cocklebur, Xanthium strumarium), cupgrass, woolly (woolly cupgrass, Eriochloa villosa), bermudagrass (Cynodon dactylon), sunflower, (common oilseed sunflower, Helianthus annuus), Russian thistle (Salsola kali), and velvetleaf (Abutilon theophrasti) were planted into a blend of loam soil and sand and treated preemergence with test chemicals formulated in a non-phytotoxic solvent mixture which included a surfactant.
(§3) At the same time, plants selected from these crop and weed species and also barley, winter (winter barley, Hordeum vulgare), windgrass (Apera spica-venti), chickweed (common chickweed, Stellaria media), deadnettle (henbit deadnettle, Lamium amplexicaule), and canarygrass (littleseed canarygrass, Phalaris minor) were planted in pots containing Redi-Earth® planting medium (Scotts Company, 14111 Scottslawn Road, Marysville, Ohio 43041) comprising spaghnum peat moss, vermiculite, wetting agent and starter nutrients and treated with postemergence applications of test chemicals formulated in the same manner. Plants ranged in height from 2 to 18 cm (1- to 4-leaf stage) for postemergence treatments. Treated plants and controls were maintained in a greenhouse for 13 to 15 days, after which time all species were compared to controls and visually evaluated. Plant response ratings, summarized in Table C, are based on a scale of 0 to 100 where 0 is no effect and 100 is complete control. A dash (-) response means no test result.

[10] = system: giant foxtail; assay: Test C postemergence; format: in vivo, Setaria faberii
Text: as §2, §3

[11] = system: ragweed; assay: Test C postemergence; format: in vivo, Ambrosia elatior
Text: as §2, §3

[12] = system: soybean; assay: Test C postemergence; format: in vivo, Glycine max
Text: as §2, §3

[13] = system: wild oat; assay: Test C postemergence; format: in vivo, Avena fatua
Text: as §2, §3

[14] = system: chickweed; assay: Test C postemergence; format: in vivo, Stellaria media
Text: as §2, §3

[15] = 125 g ai/ha, 0 to 100 scale where 0 is no effect and 100 is complete control
[16] = 500 g ai/ha, 0 to 100 scale where 0 is no effect and 100 is complete control
[17] = 16 g ai/ha, postemergence, 0 is no effect, 100 is complete control
[18] = 31 g ai/ha, postemergence, visual rating, scale 0 to 100 (0 no effect, 100 complete control), 13 to 15 days
[19] = 125 g ai/ha, postemergence, visual rating, scale 0 to 100 (0 no effect, 100 complete control)
[20] = Postemergence, 62 g ai/ha, scale 0 to 100 (0 no effect, 100 complete control)
[21] = 125 g ai/ha, 0 to 100 scale, 0 no effect, 100 complete control

FC(F)c1cccc(Oc2ncc(Br)cn2)c1-n1cc(C(F)(F)F)cn1 [Compound 163]
Plant response rating, Crabgrass, Large ([1]; 125 g ai/ha): 100 | Crabgrass, Large plant response rating [1]: 100 | Plant response rating, Foxtail, Giant ([2]; 125 g ai/ha): 100 | Foxtail, Giant plant response rating [2]: 100 | Pigweed plant response rating (0 to 100 scale) [3]: 100 | Pigweed plant response rating [3]: 100 | Velvetleaf plant response rating (0 to 100 scale) [4]: 20 | Velvetleaf plant response rating [4]: 100 | Crabgrass, Large plant response rating [5, 15]: 30 | Plant response rating, Crabgrass, Large [5, 16]: 90 | Foxtail, Giant plant response rating [6, 15]: 50 | Plant response rating, Foxtail, Giant [6, 16]: 90 | Pigweed plant response rating [7, 15]: 100 | Plant response rating, Pigweed [7, 16]: 100 | Velvetleaf plant response rating [8, 15]: 100 | Plant response rating, Velvetleaf [8, 16]: 100 | Plant response rating (0 to 100), Wheat [9, 17]: 0 | Wheat plant response rating [9, 18]: 0 | Plant response rating, Wheat [9, 19]: 5 | Plant response rating, Wheat [9, 20]: 0 | Plant response rating (0 to 100), Foxtail, Giant [10, 17]: 5 | Foxtail, Giant plant response rating [10, 18]: 5 | Plant response rating, Foxtail, Giant [10, 19]: 10 | Plant response rating, Foxtail, Giant [10, 20]: 10 | Plant response rating (0 to 100), Ragweed [11, 17]: 10 | Ragweed plant response rating [11, 18]: 35 | Plant response rating, Ragweed [11, 19]: 60 | Plant response rating, Ragweed [11, 20]: 35 | Plant response rating (0 to 100), Soybean [12, 17]: 35 | Soybean plant response rating [12, 18]: 50 | Plant response rating, Soybean [12, 19]: 75 | Plant response rating, Soybean [12, 20]: 80 | Plant response rating (0 to 100), Oat, Wild [13, 17]: 0 | Oat, Wild plant response rating [13, 18]: 5 | Plant response rating, Oat, Wild [13, 19]: 20 | Plant response rating, Oat, Wild [13, 20]: 10 | Plant response rating (0 to 100), Chickweed [14, 17]: 40 | Chickweed plant response rating [14, 18]: 80 | Plant response rating, Chickweed [14, 19]: 95 | Plant response rating, Chickweed [14, 20]: 80

FC(F)c1cccc(Oc2ncc(Cl)cn2)c1-n1cc(C(F)(F)F)cn1 [Compound 170]
Plant response rating, Crabgrass, Large ([1]; 125 g ai/ha): 100 | Crabgrass, Large plant response rating [1]: 100 | Plant response rating, Foxtail, Giant ([2]; 125 g ai/ha): 100 | Foxtail, Giant plant response rating [2]: 90 | Pigweed plant response rating (0 to 100 scale) [3]: 100 | Pigweed plant response rating [3]: 100 | Velvetleaf plant response rating (0 to 100 scale) [4]: 80 | Velvetleaf plant response rating [4]: 100 | Crabgrass, Large plant response rating [5, 15]: 70 | Plant response rating, Crabgrass, Large [5, 16]: 90 | Foxtail, Giant plant response rating [6, 15]: 70 | Plant response rating, Foxtail, Giant [6, 16]: 90 | Pigweed plant response rating [7, 15]: 100 | Plant response rating, Pigweed [7, 16]: 100 | Velvetleaf plant response rating [8, 15]: 70 | Plant response rating, Velvetleaf [8, 16]: 100

NC(=S)c1cccc(Oc2ncc(Cl)cn2)c1-n1cc(Cl)cn1 [Compound 292]
Crabgrass, Large plant response rating (0 to 100 scale) ([1]; 125 g ai/ha): 100 | Crabgrass, Large plant response rating [1]: 100 | Foxtail, Giant plant response rating (0 to 100 scale) ([2]; 125 g ai/ha): 100 | Foxtail, Giant plant response rating [2]: 100 | Pigweed plant response rating (0 to 100 scale) [3]: 100 | Pigweed plant response rating [3]: 100 | Velvetleaf plant response rating (0 to 100 scale) [4]: 30 | Velvetleaf plant response rating [4]: 100 | Plant response rating, Crabgrass, Large [5, 21]: 60 | Plant response rating, Crabgrass, Large [5, 16]: 90 | Plant response rating, Foxtail, Giant [6, 21]: 70 | Plant response rating, Foxtail, Giant [6, 16]: 90 | Plant response rating, Pigweed [7, 21]: 100 | Plant response rating, Pigweed [7, 16]: 100 | Plant response rating, Velvetleaf [8, 21]: 70 | Plant response rating, Velvetleaf [8, 16]: 100
